Assay results published in patent US10189816B2, “Substituted pyridines as inhibitors of human immunodeficiency virus replication” (priority 2015, dated 2019).
Read-outs that look alike come from different tables or passages of the source.

Test system: NL-RLuc virus
Assay: Inhibition of HIV replication (NL-RLuc reporter virus in MT-2 cells, luciferase readout)
Assay type: cell-based
Details: Human immunodeficiency virus 1, MT2, 120 h
In short: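 Antiviral EC50 came from luciferase signal after 5-day multicycle replication of NL-RLuc virus in MT-2 cells with serially diluted compound (RPMI 1640, 10% heat-inactivated FBS), fitted by the median effect equation over at least 2 experiments.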

Cc1cc(OC(C)C)cc(C)c1CN1CCc2cc(-c3c(C)nc(C)c([C@H](OC(C)(C)C)C(=O)O)c3N3CCC(C)(C)CC3)ccc2C1 [Compound 160, (S)-2-(tert-butoxy)-2-(4-(4,4-dimethylpiperidin-1-yl)-5-(2-(4-isopropoxy-2,6-dimethylbenzyl)-1,2,3,4-tetrahydroisoquinolin-6-yl)-2,6-dimethylpyridin-3-yl)acetic acid]
EC50 (read-out: Activity): < 0.1 µM

Cc1ccc(CN2CCc3cc(-c4c(C)nc(C)c([C@H](OC(C)(C)C)C(=O)O)c4N4CCC(C)(C)CC4)ccc3C2)cc1C [Compound 161, (S)-2-(tert-butoxy)-2-(5-(2-(3,4-dimethylbenzyl)-1,2,3,4-tetrahydroisoquinolin-6-yl)-4-(4,4-dimethylpiperidin-1-yl)-2,6-dimethylpyridin-3-yl)acetic acid]
EC50 (read-out: Activity): < 0.1 µM

Cc1nc(C)c([C@H](OC(C)(C)C)C(=O)O)c(N2CCC(C)(C)CC2)c1-c1ccc2c(c1)CCN(Cc1ccc(C3(C#N)CC3)cc1)C2 [Compound 162, (S)-2-(tert-butoxy)-2-(5-(2-(4-(1-cyanocyclopropyl)benzyl)-1,2,3,4-tetrahydroisoquinolin-6-yl)-4-(4,4-dimethylpiperidin-1-yl)-2,6-dimethylpyridin-3-yl)acetic acid]
EC50 (read-out: Activity): < 0.1 µM

CCCCCCCCCOc1ccc(CN2CCc3cc(-c4c(C)nc(C)c([C@H](OC(C)(C)C)C(=O)O)c4N4CCC(C)(C)CC4)ccc3C2)cc1 [Compound 163, (S)-2-(tert-butoxy)-2-(4-(4,4-dimethylpiperidin-1-yl)-2,6-dimethyl-5-(2-(4-(nonyloxy)benzyl)-1,2,3,4-tetrahydroisoquinolin-6-yl)pyridin-3-yl)acetic acid]
EC50 (read-out: Activity): < 0.1 µM
EC50 (read-out: EC50 μM): 0.076 µM

Cc1cccc(Cl)c1CN1CCc2cc(-c3cnc(C)c([C@H](OC(C)(C)C)C(=O)O)c3N3CCC(C)(C)CC3)ccc2C1 [Compound 164, (S)-2-(tert-Butoxy)-2-(5-(2-(2-chloro-6-methylbenzyl)-1,2,3,4-tetrahydroisoquinolin-6-yl)-4-(4,4-dimethylpiperidin-1-yl)-2-methylpyridin-3-yl)acetic acid]
EC50 (read-out: Activity): < 0.1 µM
EC50 (read-out: EC50 μM): 0.003 µM

Cc1ccccc1CN1CCc2cc(-c3cnc(C)c([C@H](OC(C)(C)C)C(=O)O)c3N3CCC(C)(C)CC3)ccc2C1 [Compound 165, (S)-2-(tert-Butoxy)-2-(4-(4,4-dimethylpiperidin-1-yl)-2-methyl-5-(2-(2-methylbenzyl)-1,2,3,4-tetrahydroisoquinolin-6-yl)pyridin-3-yl)acetic acid]
EC50 (read-out: Activity): < 0.1 µM

Cc1cccc(Cl)c1CN1CCc2cc(-c3c(C)nc(C)c([C@H](OC(C)(C)C)C(=O)O)c3N3CCCC(C)(C)C3)ccc2C1 [Compound 166, (S)-2-(tert-butoxy)-2-(5-(2-(2-chloro-6-methylbenzyl)-1,2,3,4-tetrahydroisoquinolin-6-yl)-4-(3,3-dimethylpiperidin-1-yl)-2,6-dimethylpyridin-3-yl)acetic acid]
EC50 (read-out: Activity): < 0.1 µM
EC50 (read-out: EC50 μM): 0.023 µM
